Tests used:
sPHEX = target: T1, sPHEX (Homo sapiens, UniProt P78562); test: sPHEX inhibitor IC50 determination using a fluorogenic substrate (Abz-GFSDYK-Dnp, S3); type: biochemical; settings: fluorogenic substrate 20 μM, 100 ng sPHEX, pH 6.5
T1 construct: The soluble form of the metallopeptidase PHEX (sPHEX) was purified to homogeneity; made in house
T1 sequence (P78562 53-749 limits assumed): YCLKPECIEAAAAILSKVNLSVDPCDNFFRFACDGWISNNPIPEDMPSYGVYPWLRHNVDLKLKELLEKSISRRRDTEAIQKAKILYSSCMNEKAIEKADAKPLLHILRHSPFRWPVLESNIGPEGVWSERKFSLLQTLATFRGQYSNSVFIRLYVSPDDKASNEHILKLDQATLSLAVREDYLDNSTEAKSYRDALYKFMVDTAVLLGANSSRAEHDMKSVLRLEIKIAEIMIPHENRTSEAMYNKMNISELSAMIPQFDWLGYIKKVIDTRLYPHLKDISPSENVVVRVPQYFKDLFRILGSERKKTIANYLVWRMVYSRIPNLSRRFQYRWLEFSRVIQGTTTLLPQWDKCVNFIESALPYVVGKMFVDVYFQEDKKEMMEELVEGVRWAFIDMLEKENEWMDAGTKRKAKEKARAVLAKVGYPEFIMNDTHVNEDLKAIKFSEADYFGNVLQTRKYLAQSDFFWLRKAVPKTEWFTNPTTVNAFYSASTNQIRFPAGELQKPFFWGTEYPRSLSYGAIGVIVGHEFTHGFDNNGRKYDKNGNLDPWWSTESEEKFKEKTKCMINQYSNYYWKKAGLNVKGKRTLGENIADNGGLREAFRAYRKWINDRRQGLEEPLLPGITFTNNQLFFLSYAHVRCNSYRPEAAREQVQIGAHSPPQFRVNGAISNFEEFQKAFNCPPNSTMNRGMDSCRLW
Description: The soluble form of the metallopeptidase PHEX (sPHEX) was purified to homogeneity according to the methods of Boileau and Crine (WO 00/50580). sPHEX quantity was measured with the Bradford assay (BioRad) using BSA as a standard.
sPHEX activity was determined using a fluorogenic substrate in which an increase of fluorescence was proportional to substrate conversion to products.
S3 was synthesized at Dr. Gilles Lajoie's laboratories (University of Western Ontario, Canada) by standard solid phase peptide synthesis. The fluorescent reaction product was excited at 320 nm to fluoresce at 420 nm. Fluorescence was recorded at 420 nm every five minutes over a one-hour period on a fluorescence plate reader (Perkin-Elmer, HTS-7000) to calculate the initial rate of the reaction. Typically, the reaction was carried out in 200 μl of buffer M (50 mM Mes(NaOH) pH 6.5, 150 mM NaCl) containing 100 ng of purified sPHEX and 20 μM of fluorigenic substrate to initiate the reaction. Enzymatic activity was determined by subtracting either the initial rate of substrate in buffer (solvolysis), or the typical reaction rate in which 5 mM EDTA was added prior to initiating the reaction.
sPHEX inhibitor IC50 determinations were done using the tested inhibitor at various concentrations coming from a serial dilution (usually ranging from 10^−3 M to 10^−12 M) in the reaction described above. IC50 values were calculated using the iterative four parameters non-linear regression formula from the GraphPad™ software (Prism).

[1] = test system: primary rat calvaria osteoblasts; test: Mineralization by 45Ca incorporation in cultured rat calvaria osteoblasts; type: cell-based; settings: fetal rat calvaria cells
Description: In general, to show stimulation of mineralization in cultured cells by PHEX inhibitors, cells of osteoblast lineage are incubated in conditions that favors the mineralization process in the absence and the presence of the PHEX inhibiting compound. This cellular model is used to study osteoblasts proliferation and differentiation, and to follow the mineralization process.
Mineralization can be monitored by standard techniques such as von Kossa staining or ^45Ca incorporation in the extracellular matrix.
For example, cells were enzymatically isolated from the calvaria of 21-day old Wistar rat fetuses by sequential digestion with collagenase as described previously (Bellows et al., 1986). Cells obtained from the last four of the five digestion steps were plated in T-75 flasks in α-MEM containing 15% FBS (Cansera) and antibiotics comprising 100 μg/ml penicillin G (Sigma-Aldrich), 50 μg/ml gentamycin (Life Technologies), and 0.3 μg/ml fungizone (Life Technologies). […]
At day 18, 21 and 25 of rat calvaria osteoblasts culture, mineralization was determined by ^45Ca incorporation assay as described previously (Ecarot et Desbarats, 1999). […] Cell layers were solubilized in 12.5% trichloroacetic acid and aliquots counted for radioactivity.

IC50 (sPHEX): 17 nM
SMILES: O=C(O)CC(CC(=O)NO)C(=O)NCCc1ccc(-c2ccccc2)cc1 (stereo not drawn) [Example 126, 3-(2-Biphenyl-4-yl-ethylcarbamoyl)4-hydroxycarbamoyl-butyric acid]
45Ca incorporation by the cells (mineralization) ([1]; 1×10^−5 M (high dose)): reduced significantly | 45Ca incorporation by the cells (mineralization) ([1]; lower concentrations, low dose (10^−6 M)): significantly stimulated

— patent US20060135480A1, “Derivatives of succinic and glutaric acids and analogs thereof useful as inhibitors of phex” (Enobia Pharma, priority 2002, published 2006)
